Assay results reported in US11472805B2, “Tricyclic compounds and their use as phosphodiesterase inhibitors” (Pfizer Inc., priority 2015, dated 2022).
Read-outs that look alike come from different tables or passages of the source.

Columns and labels:
Type in all cases: biochemical
Human PDE4B1 = Human PDE4B1 (Homo sapiens (Human), UniProt Q07343, S133E/S654A/S659A/S661A); assay: PDE4B1 Scintillation Proximity Assay (SPA), inhibition of enzyme activity; settings: read-out: Human PDE4B FL
Method in brief: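 His-tagged enzyme from baculovirus-infected insect cells, Ni-NTA purified. SPA with 1 μM cAMP (20 nM 3H-cAMP tracer) in 50 mM Tris pH 7.5, 1.3 mM MgCl2, 0.01% Brij, […] PDE4B enzyme for ~20% substrate conversion; 30 min at 25 °C, stopped with yttrium silicate beads, read after 8 h settling.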

human PDE4D3 = human PDE4D3 (Homo sapiens (Human), UniProt Q08499); assay: PDE4D3 Scintillation Proximity Assay (SPA), inhibition of enzyme activity; settings: read-out: Human PDE4D FL
Chain of human PDE4D3 (Q08499 186-808): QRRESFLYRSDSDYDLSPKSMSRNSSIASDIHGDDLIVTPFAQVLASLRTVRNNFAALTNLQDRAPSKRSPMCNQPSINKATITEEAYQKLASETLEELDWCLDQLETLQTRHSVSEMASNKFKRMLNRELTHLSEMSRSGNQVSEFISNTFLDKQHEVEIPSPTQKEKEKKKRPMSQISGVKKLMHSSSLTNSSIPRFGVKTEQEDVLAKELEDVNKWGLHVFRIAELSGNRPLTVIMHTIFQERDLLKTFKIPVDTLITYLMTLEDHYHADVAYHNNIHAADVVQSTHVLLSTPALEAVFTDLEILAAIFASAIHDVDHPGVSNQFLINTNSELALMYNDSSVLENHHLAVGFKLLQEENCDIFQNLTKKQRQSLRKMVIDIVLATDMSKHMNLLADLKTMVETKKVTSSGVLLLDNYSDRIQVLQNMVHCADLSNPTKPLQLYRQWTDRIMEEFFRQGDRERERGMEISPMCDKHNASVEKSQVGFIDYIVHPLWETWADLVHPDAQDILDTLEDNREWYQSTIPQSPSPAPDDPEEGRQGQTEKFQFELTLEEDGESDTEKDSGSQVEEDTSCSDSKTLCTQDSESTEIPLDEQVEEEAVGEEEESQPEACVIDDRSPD
Method in brief: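 His-tagged human PDE4D3 (aa 50–672), expressed in insect cells, hydrolysed 1 μM cAMP (3H tracer plus cold) for 30 min at 25° C in 50 mM Tris pH 7.5, 1.3 mM MgCl2 and 0.01% Brij. Enzyme level was set for ~20% conversion. Product was read by yttrium silicate SPA beads after 8 h settling.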

Human PDE4C1 = Human PDE4C1 (Homo sapiens (Human), UniProt Q08493); assay: PDE4C1 Scintillation Proximity Assay (SPA), inhibition of enzyme activity; settings: read-out: Human PDE4C FL
Chain of Human PDE4C1 (Q08493 2-712): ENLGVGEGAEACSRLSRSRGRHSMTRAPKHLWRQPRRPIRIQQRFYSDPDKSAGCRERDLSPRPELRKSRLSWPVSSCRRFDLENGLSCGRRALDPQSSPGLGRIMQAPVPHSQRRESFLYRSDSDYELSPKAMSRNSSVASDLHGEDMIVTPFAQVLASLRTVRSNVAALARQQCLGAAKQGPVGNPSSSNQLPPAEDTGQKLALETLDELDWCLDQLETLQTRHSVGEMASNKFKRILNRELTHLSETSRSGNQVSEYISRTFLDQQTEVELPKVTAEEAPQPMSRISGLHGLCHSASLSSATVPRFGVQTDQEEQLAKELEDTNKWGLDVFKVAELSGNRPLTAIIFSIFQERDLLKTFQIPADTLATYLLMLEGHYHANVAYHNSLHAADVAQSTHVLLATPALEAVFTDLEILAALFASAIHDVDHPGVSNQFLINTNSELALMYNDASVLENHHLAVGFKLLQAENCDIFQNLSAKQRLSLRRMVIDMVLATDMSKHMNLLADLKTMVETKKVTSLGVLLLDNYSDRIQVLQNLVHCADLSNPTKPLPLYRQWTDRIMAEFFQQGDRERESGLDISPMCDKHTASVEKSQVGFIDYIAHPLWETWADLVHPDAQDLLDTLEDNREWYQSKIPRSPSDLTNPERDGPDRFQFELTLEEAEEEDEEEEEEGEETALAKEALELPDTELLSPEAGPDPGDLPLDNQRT
Method in brief: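 Recombinant insect-cell-expressed human PDE4C1 […] in 50 mM Tris pH 7.5, 1.3 mM MgCl2, 0.01% Brij with 1 μM cAMP (3H-cAMP tracer), ~20% substrate conversion, inhibitor concentration range. Incubated 30 min at 25° C; stopped with yttrium silicate SPA beads, read by scintillation after 8 h settling.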

Human PDE4A3 = Human PDE4A3 (Homo sapiens (Human), UniProt P27815); assay: PDE4A3 Scintillation Proximity Assay (SPA), inhibition of enzyme activity; settings: read-out: Human PDE4A FL
Chain of Human PDE4A3 (P27815 other isoform, or with tags, fused parts or gaps): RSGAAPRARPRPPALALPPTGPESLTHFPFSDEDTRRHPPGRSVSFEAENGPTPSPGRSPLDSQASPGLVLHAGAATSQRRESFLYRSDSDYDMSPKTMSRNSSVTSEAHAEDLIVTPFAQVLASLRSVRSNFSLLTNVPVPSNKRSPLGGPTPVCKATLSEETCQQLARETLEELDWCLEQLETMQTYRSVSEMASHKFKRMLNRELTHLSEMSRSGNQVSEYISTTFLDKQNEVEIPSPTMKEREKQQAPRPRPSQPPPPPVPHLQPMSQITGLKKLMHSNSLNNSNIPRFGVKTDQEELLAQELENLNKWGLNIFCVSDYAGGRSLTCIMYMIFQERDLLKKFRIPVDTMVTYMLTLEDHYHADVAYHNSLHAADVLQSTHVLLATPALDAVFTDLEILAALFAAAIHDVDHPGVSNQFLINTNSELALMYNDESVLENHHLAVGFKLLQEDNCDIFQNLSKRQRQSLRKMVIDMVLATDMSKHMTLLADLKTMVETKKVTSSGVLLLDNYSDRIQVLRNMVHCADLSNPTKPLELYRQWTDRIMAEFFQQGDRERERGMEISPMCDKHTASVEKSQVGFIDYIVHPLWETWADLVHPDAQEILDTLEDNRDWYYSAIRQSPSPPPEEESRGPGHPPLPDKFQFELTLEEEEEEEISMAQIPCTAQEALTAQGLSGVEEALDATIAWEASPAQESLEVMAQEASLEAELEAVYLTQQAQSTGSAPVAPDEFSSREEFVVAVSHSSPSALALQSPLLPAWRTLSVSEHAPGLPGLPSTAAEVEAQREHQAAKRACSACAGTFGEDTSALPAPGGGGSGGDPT
Method in brief: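 Recombinant human PDE4A3 expressed in insect cells, purified via Ni-NTA, anti-FLAG and size exclusion. SPA run 30 min at 25 °C in 50 mM Tris pH 7.5, 1.3 mM MgCl2, 0.01% Brij with 1 μM cAMP (20 nM 3H-cAMP), […], ~20% substrate conversion; stopped with yttrium silicate beads.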

[1] = Table 9, geometric mean of 2-9 determinations unless otherwise indicated
[2] = Table 10, geometric mean of 2-9 determinations unless otherwise indicated

Chain of Human PDE4B1 (Q07343 122-736 S133E/S654A/S659A/S661A): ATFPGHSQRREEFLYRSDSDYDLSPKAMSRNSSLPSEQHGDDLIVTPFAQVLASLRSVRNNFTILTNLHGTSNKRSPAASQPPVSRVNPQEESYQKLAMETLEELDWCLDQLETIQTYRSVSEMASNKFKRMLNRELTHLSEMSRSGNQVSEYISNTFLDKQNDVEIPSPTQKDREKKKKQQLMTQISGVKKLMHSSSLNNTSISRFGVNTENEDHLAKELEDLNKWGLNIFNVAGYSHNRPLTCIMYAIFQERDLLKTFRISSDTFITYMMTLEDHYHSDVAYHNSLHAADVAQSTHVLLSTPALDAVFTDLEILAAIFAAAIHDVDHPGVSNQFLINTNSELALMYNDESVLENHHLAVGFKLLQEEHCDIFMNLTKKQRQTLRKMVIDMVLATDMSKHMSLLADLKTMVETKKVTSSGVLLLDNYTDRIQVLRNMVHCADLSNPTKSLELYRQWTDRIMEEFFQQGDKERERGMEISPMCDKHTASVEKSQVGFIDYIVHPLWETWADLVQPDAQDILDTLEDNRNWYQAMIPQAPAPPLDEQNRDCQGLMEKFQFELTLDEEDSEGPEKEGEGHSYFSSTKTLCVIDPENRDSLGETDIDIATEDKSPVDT

SMILES | IC50 (Human PDE4B1; [1]) | IC50 (human PDE4D3; [1]) | IC50 (Human PDE4C1; [1]) | IC50 (Human PDE4A3; [1]) | IC50 (Human PDE4B1; [2]) | IC50 (human PDE4D3; [2]) | IC50 (Human PDE4C1; [2]) | IC50 (Human PDE4A3; [2])
COc1c(F)cc(-c2c3n(c4nccnc24)CCN(C2CC2)C3=O)cc1F [Example 59, 8-Cyclopropyl-10-(3,5-difluoro-4-methoxyphenyl)-7,8-dihydropyrrolo[1,2-a:4,5-b′]dipyrazin-9(6H)-one] | 9.73 nM | 290 nM | 87.7 nM | 12.6 nM | – | – | – | –
COc1ccc(-c2c3n(c4cccnc24)CCN(C2CC2)C3=O)cc1F [Example 45, 8-Cyclopropyl-10-(3-fluoro-4-methoxyphenyl)-7,8-dihydropyrido[2′,3′:4,5]pyrrolo[1,2-a]pyrazin-9(6H)-one] | 5.81 nM | 281 nM | 7.88 nM | 1.59 nM | – | – | – | –
O=C1c2c(-c3ccc(Cl)c(F)c3)c3ncccc3n2CCN1C1CC1 [Example 32, 10-(4-Chloro-3-fluorophenyl)-8-cyclopropyl-7,8-dihydropyrido[2′,3′:4,5]pyrrolo[1,2-a]pyrazin-9(6H)-one] | < 0.7 nM | 9.07 nM | 1.44 nM | < 0.45 nM | – | – | – | –
Cc1cc(C#N)ccc1-c1c2n(c3cccnc13)CCN(C1CC1)C2=O [Example 50, 4-(8-Cyclopropyl-9-oxo-6,7,8,9-tetrahydropyrido[2′,3′:4,5]pyrrolo[1,2-a]pyrazin-10-yl)-3-methylbenzonitrile] | 6.9 nM | 356 nM | 9.62 nM | 2.99 nM | – | – | – | –
Cc1cc(C#N)c(F)cc1-c1c2c(n3c1C(=O)N(C1CC1)CC3)CCCO2 [Example 16, 4-(8-Cyclopropyl-9-oxo-3,4,6,7,8,9-hexahydro-2H-pyrano[2′,3′:4,5]pyrrolo[1,2-a]pyrazin-10-yl)-2-fluoro-5-methylbenzonitrile] | 1.78 nM | 45.5 nM | 15.2 nM | 1.57 nM | – | – | – | –
COc1ccc(-c2c3n(c4cccnc24)CCN(C2CC2)C3=O)cc1 [Example 44, 8-Cyclopropyl-10-(4-methoxyphenyl)-7,8-dihydropyrido[2′,3′:4,5]pyrrolo[1,2-a]pyrazin-9(6H)-one] | 6.37 nM | 212 nM | 86 nM | 33 nM | – | – | – | –
O=C1c2c(-c3ccccc3)c3ncccc3n2CCN1C1CC1 [Example 42, 8-Cyclopropyl-10-phenyl-7,8-dihydropyrido[2′,3′:4,5]pyrrolo[1,2-a]pyrazin-9(6H)-one] | 23.3 nM | 1050 nM | 54.1 nM | 12.2 nM | – | – | – | –
COc1c(F)cc(-c2c3n(c4cccnc24)CCN(C2CC2)C3=O)cc1F [Example 24, 8-Cyclopropyl-10-(3,5-difluoro-4-methoxyphenyl)-7,8-dihydropyrido[2′,3′:4,5]pyrrolo[1,2-a]pyrazin-9(6H)-one] | 2.94 nM | 125 nM | 24.5 nM | 4.48 nM | – | – | – | –
O=C1c2c(-c3ccc(Cl)cc3)c3ncsc3n2CCN1C1CC1 [Example 27, 9-(4-Chlorophenyl)-7-cyclopropyl-6,7-dihydro[1,3]thiazolo[4′,5′:4,5]pyrrolo[1,2-a]pyrazin-8(5H)-one] | 3.04 nM | 434 nM | 9.03 nM | 2.28 nM | – | – | – | –
N#Cc1ccc(-c2c3n(c4cccnc24)CCN(C2CC2)C3=O)cn1 [Example 26, 5-(8-Cyclopropyl-9-oxo-6,7,8,9-tetrahydropyrido[2′,3′:4,5]pyrrolo[1,2-a]pyrazin-10-yl)pyridine-2-carbonitrile] | 2.98 nM | 138 nM | 14.8 nM | 8.15 nM | – | – | – | –
Cc1cc(Cl)c(F)cc1-c1c2c(n3c1C(=O)N(C1CC1)CC3)CCCO2 [Example 29, 10-(4-Chloro-5-fluoro-2-methylphenyl)-8-cyclopropyl-3,4,7,8-tetrahydro-2H-pyrano[2′,3′:4,5]pyrrolo[1,2-a]pyrazin-9(6H)-one] | 1 nM | 12.7 nM | 2.45 nM | 1 nM | – | – | – | –
Cc1ccc(-c2c3n(c4cccnc24)CCN(C2CC2)C3=O)cc1 [Example 20, 8-Cyclopropyl-10-(4-methylphenyl)-7,8-dihydropyrido[2′,3′:4,5]pyrrolo[1,2-a]pyrazin-9(6H)-one] | 4.88 nM | 465 nM | 11.5 nM | 2.52 nM | – | – | – | –
O=C1c2c(-c3cc(F)c(F)c(F)c3)c3ncccc3n2CCN1C1CC1 [Example 40, 8-Cyclopropyl-10-(3,4,5-trifluorophenyl)-7,8-dihydropyrido[2′,3′:4,5]pyrrolo[1,2-a]pyrazin-9(6H)-one] | < 0.67 nM | 17.2 nM | 4.36 nM | < 0.41 nM | – | – | – | –

Now from value to compound:

IC50 (Human PDE4B1; [1]) | IC50 (human PDE4D3; [1]) | IC50 (Human PDE4C1; [1]) | IC50 (Human PDE4A3; [1]) | IC50 (Human PDE4B1; [2]) | IC50 (human PDE4D3; [2]) | IC50 (Human PDE4C1; [2]) | IC50 (Human PDE4A3; [2]) | SMILES
27 nM | 660 nM | 52 nM | 19 nM | – | – | – | – | O=C1c2c(-c3ccc(Cl)c(F)c3)c3ncccc3n2CCN1c1ncccn1 [Example 74, 10-(4-Chloro-3-fluorophenyl)-8-(pyrimidin-2-yl)-7,8-dihydropyrido[2′,3′:4,5]pyrrolo[1,2-a]pyrazin-9(6H)-one]
11.5 nM | 458 nM | 37.5 nM | 3.56 nM | – | – | – | – | O=C1c2c(-c3cnc4ccoc4c3)c3ncccc3n2CCN1C1CC1 [Example 64, 8-Cyclopropyl-10-(furo[3,2-b]pyridin-6-yl)-7,8-dihydropyrido[2′,3′:4,5]pyrrolo[1,2-a]pyrazin-9(6H)-one]
– | – | – | – | 2760 nM | 4450 nM | 2360 nM | 889 nM | Cn1cc(-c2c3n(c4cccnc24)CCN(C2CC2)C3=O)cn1 [Example 91, 8-Cyclopropyl-10-(1-methyl-1H-pyrazol-4-yl)-7,8-dihydropyrido[2′,3′:4,5]pyrrolo[1,2-a]pyrazin-9(6H)-one]
32.1 nM | 1350 nM | 731 nM | 219 nM | – | – | – | – | O=C1c2c(-c3ccc(Cl)cc3)c3ncccc3n2CC2COCCN12 (stereo not drawn) [Example 63, 13-(4-Chlorophenyl)-6a,7,9,10-tetrahydro-6H,12H-pyrido[2″,3″:4′,5′]pyrrolo[1′,2′:4,5]pyrazino[2,1-c][1,4]oxazin-12-one]
– | – | – | – | 212 nM | 120 nM | 173 nM | 104 nM | CS(=O)(=O)N1CCn2c(c(-c3ccc(Cl)cc3)c3ncccc32)C1=O [Example 79, 10-(4-Chlorophenyl)-8-(methylsulfonyl)-7,8-dihydropyrido[2′,3′:4,5]pyrrolo[1,2-a]pyrazin-9(6H)-one]
– | – | – | – | 11000 nM | 16100 nM | 8420 nM | 8080 nM | Cc1nc(-c2c3n(c4cccnc24)CCN(C2CC2)C3=O)cs1 [Example 88, 8-Cyclopropyl-10-(2-methylthiazol-4-yl)-7,8-dihydropyrido[2′,3′:4,5]pyrrolo[1,2-a]pyrazin-9(6H)-one]
– | – | – | – | 1890 nM | 1920 nM | 649 nM | 345 nM | CCCc1cnc(N2CCn3c(c(-c4ccc(Cl)cc4)c4ncccc43)C2=O)nc1 [Example 95, 10-(4-Chlorophenyl)-8-(5-propylpyrimidin-2-yl)-7,8-dihydropyrido[2′,3′:4,5]pyrrolo[1,2-a]pyrazin-9(6H)-one]
– | – | – | – | 467 nM | 858 nM | 1050 nM | 720 nM | CS(=O)(=O)c1cccc(-c2c3n(c4cccnc24)CCN(C2CC2)C3=O)c1 [Example 94, 8-Cyclopropyl-10-(3-(methylsulfonyl)phenyl)-7,8-dihydropyrido[2′,3′:4,5]pyrrolo[1,2-a]pyrazin-9(6H)-one]
